This is an account of results in ChEMBL document CHEMBL1201862, “PubChem BioAssay data set” (2004).

What is called CC50 is the concentration that lowers cell viability or growth by half. A word on the IC50: it is the midpoint of a concentration-inhibition curve.

Each structure is given as a SMILES string. The source made the active and inactive calls. Cut-off read from the data, not from the text of the source, for most assays here: actives have a measured IC50 and inactives only a lower limit. Bounds are passed on as bounds.

What all share (assay type): functional
The nature of assay [1]: HEp-2 cell cytotoxicity, dose response, cytotoxicity control for RSV inhibitor project, HTS (AID 2410). Particulars: human respiratory syncytial virus.
Assay [2] addresses T1, Ubiquitin-conjugating enzyme E2 N (Homo sapiens, UniProt P61088).
T1 sequence (P61088 whole entry): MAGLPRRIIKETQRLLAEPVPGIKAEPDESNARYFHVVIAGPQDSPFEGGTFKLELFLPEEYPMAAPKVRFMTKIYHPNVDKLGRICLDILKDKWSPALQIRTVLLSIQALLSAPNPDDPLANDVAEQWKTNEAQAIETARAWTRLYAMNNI

Assay [3] deals with T2, Apoptotic protease-activating factor 1 (Homo sapiens, UniProt O14727).
T2 sequence (O14727 whole entry): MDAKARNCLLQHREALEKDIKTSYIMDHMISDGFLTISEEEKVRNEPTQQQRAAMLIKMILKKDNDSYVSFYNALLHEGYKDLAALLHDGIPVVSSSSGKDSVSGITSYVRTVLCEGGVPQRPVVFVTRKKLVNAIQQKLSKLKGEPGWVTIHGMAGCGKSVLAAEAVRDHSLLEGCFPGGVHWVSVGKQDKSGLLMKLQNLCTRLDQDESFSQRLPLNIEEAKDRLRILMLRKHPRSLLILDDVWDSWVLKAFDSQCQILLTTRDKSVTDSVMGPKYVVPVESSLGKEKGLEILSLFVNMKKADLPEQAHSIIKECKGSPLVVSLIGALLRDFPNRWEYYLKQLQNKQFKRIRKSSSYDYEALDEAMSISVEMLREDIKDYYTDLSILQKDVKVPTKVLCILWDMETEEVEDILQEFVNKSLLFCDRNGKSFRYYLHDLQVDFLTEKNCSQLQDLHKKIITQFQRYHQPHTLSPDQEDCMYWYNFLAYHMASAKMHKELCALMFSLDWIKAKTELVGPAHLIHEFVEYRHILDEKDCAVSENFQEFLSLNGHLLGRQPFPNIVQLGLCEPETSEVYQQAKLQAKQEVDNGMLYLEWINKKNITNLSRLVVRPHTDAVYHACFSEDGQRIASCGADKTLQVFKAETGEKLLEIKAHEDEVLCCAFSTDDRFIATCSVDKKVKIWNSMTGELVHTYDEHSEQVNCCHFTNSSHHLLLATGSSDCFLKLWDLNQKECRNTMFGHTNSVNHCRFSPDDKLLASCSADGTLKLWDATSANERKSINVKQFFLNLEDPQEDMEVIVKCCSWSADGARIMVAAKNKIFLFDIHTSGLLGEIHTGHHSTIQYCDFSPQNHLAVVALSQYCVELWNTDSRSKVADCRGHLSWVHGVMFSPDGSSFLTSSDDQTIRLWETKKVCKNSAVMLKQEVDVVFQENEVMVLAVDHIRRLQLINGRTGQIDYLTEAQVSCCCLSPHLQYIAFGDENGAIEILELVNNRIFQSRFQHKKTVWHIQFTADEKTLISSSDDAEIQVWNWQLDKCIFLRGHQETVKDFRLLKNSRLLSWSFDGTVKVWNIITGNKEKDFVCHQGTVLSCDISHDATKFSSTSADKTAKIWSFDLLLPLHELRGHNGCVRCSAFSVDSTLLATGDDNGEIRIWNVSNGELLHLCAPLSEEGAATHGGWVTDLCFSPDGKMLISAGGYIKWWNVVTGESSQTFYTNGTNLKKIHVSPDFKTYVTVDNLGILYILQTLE

Assay [4] has as its target T3, Sentrin-specific protease 8 (Homo sapiens, UniProt Q96LD8).
T3 sequence (Q96LD8 whole entry): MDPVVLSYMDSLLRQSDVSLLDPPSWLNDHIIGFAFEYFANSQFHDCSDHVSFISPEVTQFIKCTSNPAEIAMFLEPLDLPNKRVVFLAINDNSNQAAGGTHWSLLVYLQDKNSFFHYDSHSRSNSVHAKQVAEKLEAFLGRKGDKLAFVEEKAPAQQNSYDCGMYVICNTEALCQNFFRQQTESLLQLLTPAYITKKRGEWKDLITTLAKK
Description: SENP8 protease inhibitors, SAR follow-up, biochemical, luminescence (AID 504501).

A further assay addresses T4, Caspase-3 (Homo sapiens, UniProt P42574).
T4 sequence (P42574 whole entry): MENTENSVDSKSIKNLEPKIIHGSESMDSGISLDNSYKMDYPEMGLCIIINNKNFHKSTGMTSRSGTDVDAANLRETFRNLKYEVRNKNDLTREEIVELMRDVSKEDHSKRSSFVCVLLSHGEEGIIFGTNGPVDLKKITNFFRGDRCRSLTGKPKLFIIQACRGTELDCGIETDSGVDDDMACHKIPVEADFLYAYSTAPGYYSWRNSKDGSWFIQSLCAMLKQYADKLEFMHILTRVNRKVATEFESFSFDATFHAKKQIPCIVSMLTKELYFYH
Nature of the assay: SAR Analysis of small molecule inhibitors of Sentrin-specific proteases (SENPs) using a Caspase-3 Selectivity assay. [Related pubchem assays (depositor defined):AID2540, AID2599, AID434973, AID489001].

Assay [5] addresses T5, Sentrin-specific protease 6 (Homo sapiens, UniProt Q9GZR1).
T5 sequence (Q9GZR1 whole entry): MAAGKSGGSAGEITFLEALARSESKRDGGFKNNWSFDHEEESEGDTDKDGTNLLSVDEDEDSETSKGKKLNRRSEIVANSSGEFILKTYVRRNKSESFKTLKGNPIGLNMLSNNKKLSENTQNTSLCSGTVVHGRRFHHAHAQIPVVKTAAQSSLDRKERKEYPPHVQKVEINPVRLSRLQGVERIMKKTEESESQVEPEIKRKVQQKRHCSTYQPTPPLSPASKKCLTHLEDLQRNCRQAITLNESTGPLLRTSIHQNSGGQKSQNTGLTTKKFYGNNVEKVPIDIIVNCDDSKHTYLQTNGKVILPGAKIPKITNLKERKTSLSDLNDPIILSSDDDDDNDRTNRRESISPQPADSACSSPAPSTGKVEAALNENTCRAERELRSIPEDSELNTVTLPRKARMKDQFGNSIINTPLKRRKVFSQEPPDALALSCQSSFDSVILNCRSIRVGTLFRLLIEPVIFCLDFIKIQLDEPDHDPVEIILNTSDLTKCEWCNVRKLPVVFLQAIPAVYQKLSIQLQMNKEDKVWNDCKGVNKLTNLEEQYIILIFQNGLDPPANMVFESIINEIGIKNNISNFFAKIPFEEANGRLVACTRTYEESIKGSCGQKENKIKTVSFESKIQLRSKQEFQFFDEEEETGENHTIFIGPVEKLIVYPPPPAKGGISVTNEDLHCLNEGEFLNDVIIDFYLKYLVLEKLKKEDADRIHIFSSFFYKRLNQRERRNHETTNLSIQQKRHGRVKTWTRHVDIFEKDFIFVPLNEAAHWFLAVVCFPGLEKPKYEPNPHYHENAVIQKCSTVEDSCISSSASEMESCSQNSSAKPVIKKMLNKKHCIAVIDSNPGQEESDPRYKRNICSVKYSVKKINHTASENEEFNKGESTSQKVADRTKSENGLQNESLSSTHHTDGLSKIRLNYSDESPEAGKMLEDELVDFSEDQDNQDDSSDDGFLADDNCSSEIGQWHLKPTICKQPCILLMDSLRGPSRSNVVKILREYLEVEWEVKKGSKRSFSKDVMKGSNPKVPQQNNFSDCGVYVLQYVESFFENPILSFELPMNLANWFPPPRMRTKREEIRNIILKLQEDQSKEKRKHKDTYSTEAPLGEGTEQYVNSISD
Description: SAR Analysis of small molecule inhibitors of Sentrin-specific protease 6 (SENP6) using a Luminescent assay. [Related pubchem assays (depositor defined):AID2582, AID2599].

Assay [6] deals with T6, Sentrin-specific protease 7 (Homo sapiens, UniProt Q9BQF6).
T6 sequence (Q9BQF6 whole entry): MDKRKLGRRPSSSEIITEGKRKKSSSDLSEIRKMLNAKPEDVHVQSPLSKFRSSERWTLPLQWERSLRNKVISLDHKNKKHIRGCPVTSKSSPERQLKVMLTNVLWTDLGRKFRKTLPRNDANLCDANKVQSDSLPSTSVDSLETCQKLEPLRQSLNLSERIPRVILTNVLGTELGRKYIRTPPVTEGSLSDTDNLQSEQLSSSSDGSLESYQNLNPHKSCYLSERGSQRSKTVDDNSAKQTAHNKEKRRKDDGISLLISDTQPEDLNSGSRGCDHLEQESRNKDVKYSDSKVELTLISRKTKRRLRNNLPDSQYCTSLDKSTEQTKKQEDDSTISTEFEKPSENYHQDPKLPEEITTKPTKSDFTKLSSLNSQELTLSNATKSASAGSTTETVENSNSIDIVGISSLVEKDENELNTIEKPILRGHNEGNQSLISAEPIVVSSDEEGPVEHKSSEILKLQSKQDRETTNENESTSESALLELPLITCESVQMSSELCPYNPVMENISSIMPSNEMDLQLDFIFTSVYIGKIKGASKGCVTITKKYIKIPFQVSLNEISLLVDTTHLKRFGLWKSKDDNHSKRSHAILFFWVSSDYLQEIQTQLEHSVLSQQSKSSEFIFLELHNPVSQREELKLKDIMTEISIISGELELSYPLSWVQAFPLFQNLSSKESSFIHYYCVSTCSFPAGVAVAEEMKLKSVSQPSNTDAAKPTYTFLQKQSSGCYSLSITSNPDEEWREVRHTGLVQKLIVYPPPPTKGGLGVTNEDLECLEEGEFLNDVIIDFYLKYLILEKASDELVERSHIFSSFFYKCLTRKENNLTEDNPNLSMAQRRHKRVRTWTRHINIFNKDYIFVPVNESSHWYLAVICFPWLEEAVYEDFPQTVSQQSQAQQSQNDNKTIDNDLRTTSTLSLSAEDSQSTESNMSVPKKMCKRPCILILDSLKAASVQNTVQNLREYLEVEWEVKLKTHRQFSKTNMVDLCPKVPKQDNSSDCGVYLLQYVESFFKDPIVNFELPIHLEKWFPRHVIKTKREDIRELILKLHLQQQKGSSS
Description: SENP7 protease inhibitors, SAR follow-up, biochemical, luminescence (AID 504497).

On to `COc1ccc(S(=O)(=O)N2CCN(c3ccc4nnc(-c5ccc(F)cc5)n4n3)CC2)cc1`, for which the CC50 in assay [1] was > 50 µM (active). Moreover, the values for the IC50 in assay [2] and in assay [3] were > 20 µM (inactive) and 19.2 µM (active), respectively.

Consider `Cc1ccc(C(=O)Nc2sc3c(c2C#N)CCCCCC3)o1`, for which the IC50 is > 99 µM (inactive) in assay [4], > 99 µM (inactive) at Caspase-3, > 99 µM (inactive) in assay [5] and 39.1 µM (active) in assay [6].

In the case of `O=C(c1ccc(Cl)s1)N(Cc1cccnc1)c1nc2c(F)cc(F)cc2s1`, the IC50 (in assay [4]; on Caspase-3; in assay [5]; in assay [6]) was > 99 µM (inactive) throughout.
